Results: patent US10450549B2, “Aryloxyphenoxypropionate tolerance in turfrgass species and use of AAD1 as a selectable marker” (Dow AgroSciences, LLC, priority 2004, dated 2019)

Legend:
AAD1 (v1) = target: T1, AAD1 (v1) (Sphingobium herbicidovorans, UniProt Q8KSC8); experiment: Colorimetric phenol detection assay of AAD1 (v1) activity (purified enzyme or E. coli extract); assay type: biochemical; details: for activity of AAD1 (v1) E. coli extract on substrate: 0.5 mM substrate, 4 μl extract; for activity of purified AAD1 (v1) on substrate: 1 mM substrate, 1 or 10 μg enzyme; for A510, AAD1 (10x): 10 μg purified AAD1 (v1) per 0.16 ml assay
T1 construct: made in house; host or cells: E. coli BL-21 Star (DE3), plasmid pDAB3203

AAD2 (v1) = AAD2 (v1) (Bradyrhizobium diazoefficiens, UniProt Q89UC4); experiment: Colorimetric phenol assay of AAD2 (v1) E. coli extract / partially purified enzyme; assay type: biochemical, Bradyrhizobium japonicum; details: for A510 AAD2: substrate 0.5 mM, 15 min, 25 mM MOPS pH 6.8, 3 μl AAD2 extract (42 μg protein)
[1] = tested on: transformed-control line containing PAT and Cry1F; experiment: Foliar-applied auxinic herbicides on control (PAT/Cry1F, wildtype) Arabidopsis, % injury 14 DAT; assay type: in vivo, Arabidopsis thaliana; details: PatCry1f - Control
Protocol: (§1) The ability of AAD1 (v3) to provide resistance to other aryloxyphenoxyalkanoate auxin herbicides in transgenic Arabidopsis was determined by foliar application of various substrates described in Example 6.8. T4 generation Arabidopsis seed, homozygous for AAD1 (v3) (line AAD1.01.315.076) was stratified, and sown into selection trays much like that of Arabidopsis (Example 6.4). A transformed-control line containing PAT and the insect resistance gene Cry1F was planted in a similar manner. Seedlings were transferred to individual 3-inch pots in the greenhouse. All plants were sprayed with the use of a track sprayer set at 187 L/ha. […] All applications were formulated in 200 mM Hepes buffer (pH 7.5). Each treatment was replicated 3-4 times. Plants were evaluated at 3 and 14 days after treatment and are averaged over two experiments.

PAAD1.315.064 ARBTH = experiment: In vitro plate test of herbicide cross resistance: homozygous T4 AAD1 (v3) Arabidopsis; assay type: in vivo, Arabidopsis thaliana; details: for PAAD1.315.064 ARBTH root 150 / PAAD1.315.064 T3 ARBTH shoot 150: 7 days
Protocol: (§2) The ability of AAD1 (v3) to provide resistance to other aryloxyphenoxyalkanoate herbicides in transgenic Arabidopsis was determined using a modified in vitro plate assay. Seeds from wild-type Arabidopsis thaliana as well as Arabidopsis thaliana containing the plant optimized AAD1 (v3) gene (T4 homozygous plants id=PAAD1.315.064) were sterilized by agitating for 10 min in a 50% bleach solution. These seeds were then rinsed four times with sterile water to remove the bleach.
(§3) Dose response assays utilized a nutrient media (see below) supplemented with various rates of test compounds. The test compounds were added to the heated media (55° C.) as concentrated solutions in DMSO. Control wells had the appropriate amount of DMSO without any additional compound. The final concentration of DMSO never exceeded 1% (v/v). After thorough mixing, a 6 mL aliquot of the warm media containing the appropriate concentration of compound was added to each well of a 6-well, flat bottom, polystyrene tissue culture tray (Falcon 353046, Becton Dickson and Company, Franklin Lakes, N.J.). After the media solidified, approximately 20 to 30 Arabidopsis seeds were applied on top of the solidified media and the remaining 2 mL of media was poured over the seeds. The plates were lightly agitated to disperse the seeds, covered and allowed to cool until the media had completely solidified. The plates were incubated for 7 days at 25° C. under continual fluorescent lighting (75 μE m^−2 s^−1). Nutrient Media Composition was as described in Example 2.2 and in Somerville and Orgen (1982).
(§4) Assessment of Growth Reduction. The apical portion of the Arabidopsis plants grown in the treated media was assessed visually relative to the apical portion of the plants grown in the media containing only DMSO. Values were recorded as % growth reduction. Assessments of root growth inhibition of the Arabidopsis plants grown in the treated media were achieved by carefully extracting the plants from the media and measuring the length of the root. These root lengths were then compared to the root length of the control plants to determine a % growth reduction. A minimum of five plants were assessed for each treatment. The values recorded are an average of all the plants assessed. The calculated concentration to reach 50% inhibition effect (I50) were determined for both root and shoots of wildtype and AAD1-transformed Arabidopsis. The ratios of resistant to sensitive biotypes are included in Table 19. A ratio>2 for both root and shoot measurements generally signifies significant resistance. The higher the ratio, the greater the level of resistance. […] The broad phenoxy auxin resistance is the first reported in planta.

[2] = tested on: T4 Arabidopsis homozygous for AAD1 (v3) (line AAD1.01.315.076); experiment: Foliar-applied auxinic herbicides on homozygous T4 AAD1 (v3) Arabidopsis, % injury 14 DAT; assay type: in vivo, Arabidopsis thaliana; details: AAD1.01.315.076.T4 homozygous AAD1 plants
Protocol: as §1

wt ARBTH = experiment: In vitro plate test of herbicide cross resistance: wild-type Arabidopsis; assay type: in vivo, Arabidopsis thaliana; details: 7 days
Protocol: as §2, §3, §4

[3] = Table 4, substrate 1 mM, 1 μg purified AAD1 (v1) per 0.16 ml assay
[4] = substrate 0.5 mM, 15 min, 25 mM MOPS pH 6.8, 4 μl AAD1 (32 μg protein) extract
[5] = resistant to sensitive biotype, >2 signifies resistance

SMILES: C[C@H](Oc1ccc(Oc2ccc(C#N)cc2F)cc1)C(=O)O [(S)- cyhalofop]
- activity of AAD1 (v1) E. coli extract on substrate (AAD1 (v1); 15 min): no activity
- activity of purified AAD1 (v1) on substrate (AAD1 (v1)): Minimal activity
- A510, AAD1 (AAD1 (v1); [3]): 0.003
- A510, AAD1 (10x) (AAD1 (v1); Table 4, substrate 1 mM): 0.017
- A510, AAD1 (AAD1 (v1); [4]): 0
- A510 AAD2 (AAD2 (v1)): 0.15

SMILES: C[C@@H](Oc1ccc(Oc2nc3ccc(Cl)cc3o2)cc1)C(=O)O [(R)- fenoxaprop]
- A510, AAD1 (AAD1 (v1); [3]): 0.408
- A510, AAD1 (10x) (AAD1 (v1); Table 4, substrate 1 mM): 0.597
- A510, AAD1 (AAD1 (v1); [4]): 0.14
- A510 AAD2 (AAD2 (v1)): 0

SMILES: C[C@@H](Oc1ccc(Oc2cnc3cc(Cl)ccc3n2)cc1)C(=O)O [(R)- quizalofop]
- A510, AAD1 (AAD1 (v1); [3]): 0.43
- A510, AAD1 (10x) (AAD1 (v1); Table 4, substrate 1 mM): 2.1
- kcat (AAD1 (v1); purified AAD1 (v1)): 18.9 min⁻¹
- Vmax ± SE (AAD1 (v1); purified AAD1 (v1), Michaelis-Menten fit): 0.57 ± 0.03 μmol min^−1 mg^−1 AAD1
- A510, AAD1 (AAD1 (v1); [4]): 0.27
- A510 AAD2 (AAD2 (v1)): 0.01

SMILES: CC(Oc1ccc(Oc2ncc(C(F)(F)F)cc2Cl)cc1)C(=O)O (stereo not drawn) [compound 8671]
- A510, AAD1 (AAD1 (v1); [4]): 0.12
- A510 AAD2 (AAD2 (v1)): 0

SMILES: O=S(=O)(O)COc1ccc(Cl)cc1Cl [2,4-D sulfonate]
- phenol produced by AAD1 (v1) relative to 2,4-D (AAD1 (v1); another test): ~25%
- AAD2 (v1) activity on substrate (AAD2 (v1); E. coli extract): little or no detectable phenol

SMILES: O=C(O)COc1ccc(Oc2ncc(C(F)(F)F)cc2Cl)cc1 [haloxyfop- oxyacetate]
- activity of purified AAD1 (v1) on substrate (AAD1 (v1)): cleaved very slowly
- A510, AAD1 (AAD1 (v1); [3]): 0.004
- A510, AAD1 (10x) (AAD1 (v1); Table 4, substrate 1 mM): 0.053
- A510, AAD1 (AAD1 (v1); [4]): 0
- A510 AAD2 (AAD2 (v1)): 0.22

SMILES: Cc1cc(Cl)ccc1OC(C)C(=O)O (racemic) [(R,S)-mecoprop]
- Ave % Injury 14DAT ([1]; 12.5 g ae/ha foliar): 0%
- Ave % Injury 14DAT ([1]; 25 g ae/ha foliar): 2%
- Ave % Injury 14DAT ([1]; 50 g ae/ha foliar): 17%
- Ave % Injury 14DAT ([1]; 100 g ae/ha foliar): 33%
- Ave % Injury 14DAT ([1]; 200 g ae/ha foliar): 62%
- Ave % Injury 14DAT ([1]; 400 g ae/ha foliar): 78%
- Ave % Injury 14DAT ([1]; 800 g ae/ha foliar): 93%
- Ave % Injury 14DAT ([1]; 1600 g ae/ha foliar): 100%
- root ratio (PAAD1.315.064 ARBTH; [5]): 150
- shoot ratio (PAAD1.315.064 ARBTH; [5]): 12.5
- PAAD1.315.064 ARBTH root 150 (PAAD1.315.064 ARBTH): 1.5 ppm
- PAAD1.315.064 T3 ARBTH shoot 150 (PAAD1.315.064 ARBTH): 25 ppm
- activity of AAD1 (v1) E. coli extract on substrate (AAD1 (v1); 15 min): cleaved
- A510, AAD1 (AAD1 (v1); Table 3, substrate 1 mM, 1 μg purified AAD1 (v1) per 0.16 ml assay, 15 min): 0.341
- A510, AAD1 (10x) (AAD1 (v1); Table 3, substrate 1 mM, 15 min): 2.085
- Ave % Injury 14DAT ([2]; 12.5 g ae/ha foliar): 3%
- Ave % Injury 14DAT ([2]; 25 g ae/ha foliar): 0%
- Ave % Injury 14DAT ([2]; 50 g ae/ha foliar): 0%
- Ave % Injury 14DAT ([2]; 100 g ae/ha foliar): 0%
- Ave % Injury 14DAT ([2]; 200 g ae/ha foliar): 3%
- Ave % Injury 14DAT ([2]; 400 g ae/ha foliar): 0%
- Ave % Injury 14DAT ([2]; 800 g ae/ha foliar): 0%
- Ave % Injury 14DAT ([2]; 1600 g ae/ha foliar): 0%
- wt ARBTH root 150 (wt ARBTH): 0.01 ppm
- wt ARBTH shoot 150 (wt ARBTH): 2 ppm

SMILES: O=C(O)COc1cc(Cl)c(Cl)cc1Cl [2,4,5-T]
- Ave % Injury 14DAT ([1]; 8.75 g ae/ha foliar): 0%
- Ave % Injury 14DAT ([1]; 17.5 g ae/ha foliar): 20%
- Ave % Injury 14DAT ([1]; 35 g ae/ha foliar): 43%
- Ave % Injury 14DAT ([1]; 70 g ae/ha foliar): 85%
- Ave % Injury 14DAT ([1]; 140 g ae/ha foliar): 95%
- Ave % Injury 14DAT ([1]; 280 g ae/ha foliar): 98%
- Ave % Injury 14DAT ([1]; 560 g ae/ha foliar): 100%
- Ave % Injury 14DAT ([1]; 1120 g ae/ha foliar): 100%
- shoot ratio (PAAD1.315.064 ARBTH; [5]): 6.67
- PAAD1.315.064 ARBTH root 150 (PAAD1.315.064 ARBTH): <0.01 ppm
- PAAD1.315.064 T3 ARBTH shoot 150 (PAAD1.315.064 ARBTH): 10 ppm
- Ave % Injury 14DAT ([2]; 8.75 g ae/ha foliar): 0%
- Ave % Injury 14DAT ([2]; 17.5 g ae/ha foliar): 3%
- Ave % Injury 14DAT ([2]; 35 g ae/ha foliar): 0%
- Ave % Injury 14DAT ([2]; 70 g ae/ha foliar): 3%
- Ave % Injury 14DAT ([2]; 140 g ae/ha foliar): 0%
- Ave % Injury 14DAT ([2]; 280 g ae/ha foliar): 0%
- Ave % Injury 14DAT ([2]; 560 g ae/ha foliar): 17%
- Ave % Injury 14DAT ([2]; 1120 g ae/ha foliar): 3%
- wt ARBTH root 150 (wt ARBTH): <0.01 ppm
- wt ARBTH shoot 150 (wt ARBTH): 1.5 ppm

SMILES: C[C@@H](Oc1ccc(Oc2ccc(C#N)cc2F)cc1)C(=O)O [(R)- cyhalofop]
- A510, AAD1 (AAD1 (v1); [3]): 0.222
- A510, AAD1 (10x) (AAD1 (v1); Table 4, substrate 1 mM): 1.989
- A510, AAD1 (AAD1 (v1); [4]): 0.14
- A510 AAD2 (AAD2 (v1)): 0

SMILES: CC(Oc1ccc(Oc2ncc(C(F)(F)F)cc2Cl)cc1)C(=O)O (racemic) [haloxyfop]
- A510, AAD1 (AAD1 (v1); [4]): 0.1
- A510 AAD2 (AAD2 (v1)): 0.3

SMILES: CC(Oc1ccc(Oc2ccc(C#N)cc2F)cc1)C(=O)O (racemic) [(R,S)- cyhalofop]
- A510, AAD1 (AAD1 (v1); [3]): 0.215
- A510, AAD1 (10x) (AAD1 (v1); Table 4, substrate 1 mM): 1.815
- A510, AAD1 (AAD1 (v1); [4]): 0.12
- A510 AAD2 (AAD2 (v1)): 0.1
